Drawing on ChEMBL document CHEMBL1128530, “Alpha- and beta-adrenoceptors: from the gene to the clinic. 1. Molecular biology and adrenoceptor subclassification” (J Med Chem, 1995), this text covers Ki for two compounds.

Molecules are shown by their SMILES.

Assay [1] has as its target T1, Alpha-1A adrenergic receptor (Homo sapiens, UniProt P35348).
T1 sequence (P35348 whole entry): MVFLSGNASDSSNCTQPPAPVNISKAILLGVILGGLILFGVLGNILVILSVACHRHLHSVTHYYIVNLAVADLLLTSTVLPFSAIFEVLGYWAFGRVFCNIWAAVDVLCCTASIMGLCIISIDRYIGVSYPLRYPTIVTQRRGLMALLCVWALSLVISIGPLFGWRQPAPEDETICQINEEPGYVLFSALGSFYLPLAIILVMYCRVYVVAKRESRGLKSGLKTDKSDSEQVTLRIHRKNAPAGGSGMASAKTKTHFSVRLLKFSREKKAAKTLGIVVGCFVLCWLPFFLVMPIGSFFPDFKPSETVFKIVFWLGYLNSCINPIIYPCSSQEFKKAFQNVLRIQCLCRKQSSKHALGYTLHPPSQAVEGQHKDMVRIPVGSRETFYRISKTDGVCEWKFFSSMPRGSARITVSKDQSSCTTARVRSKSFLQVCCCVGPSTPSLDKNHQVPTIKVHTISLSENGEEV
Kind of assay: Binding affinity against Alpha-1A adrenergic receptor from human clone.

Assay [2] deals with Alpha-1B adrenergic receptor (Rattus norvegicus, UniProt P15823). Kind of assay: Overall binding displacement in tissues containing only the Alpha-1B adrenergic receptor (rat spleen, rat liver). The assay is classed as tissue-based.
Alpha-1B adrenergic receptor, sequence (P15823 whole entry, looked up): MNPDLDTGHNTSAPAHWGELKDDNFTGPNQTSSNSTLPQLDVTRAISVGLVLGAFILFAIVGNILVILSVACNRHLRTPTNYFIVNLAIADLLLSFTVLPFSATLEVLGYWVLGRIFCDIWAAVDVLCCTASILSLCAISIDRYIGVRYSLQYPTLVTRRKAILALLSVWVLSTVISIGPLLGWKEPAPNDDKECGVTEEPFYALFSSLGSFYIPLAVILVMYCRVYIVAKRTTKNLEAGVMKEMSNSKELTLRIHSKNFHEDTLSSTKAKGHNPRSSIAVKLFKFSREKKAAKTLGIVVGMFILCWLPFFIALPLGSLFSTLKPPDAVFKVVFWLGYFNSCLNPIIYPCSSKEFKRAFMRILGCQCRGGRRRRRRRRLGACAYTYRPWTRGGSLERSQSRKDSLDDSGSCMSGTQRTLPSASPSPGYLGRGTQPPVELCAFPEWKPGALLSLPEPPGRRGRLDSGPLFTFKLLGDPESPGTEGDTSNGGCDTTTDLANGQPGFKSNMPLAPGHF

By Ki is commonly meant a measure of affinity in units of concentration, obtained from inhibition or displacement. Turning to `COc1cccc(OC)c1OCCNCC1COc2ccccc2O1` (configuration not stated), the Ki in assay [1] is 0.37 nM.

Compound `COc1ccccc1N1CCN(CCCNc2c(C)c(=O)n(C)c(=O)n2C)CC1` returned a Ki in assay [2] of 96 nM.
